Literature values in patent US11839217B2, “Composition comprising a bioactive molecule” (EUCARYO BEHEER B.V., priority 2016, dated 2023).

## C[C@@H]1C/C=C/C=C/C=C/C=C/[C@H](O[C@@H]2O[C@H](C)[C@@H](O)[C@H](N)[C@@H]2O)C[C@@H]2O[C@](O)(C[C@@H](O)C[C@H]3O[C@@H]3/C=C/C(=O)O1)C[C@H](O)[C@H]2C(=O)O [natamycin]
ethanol
  solubility in ethanol: 40 to 1200 µg/mL
water
  solubility in water: 30 to 50 µg/mL
